This note sets out measurements from patent US4528190A, “GRF Analogs IV” (The Salk Institute For Biological Studies, priority 1984, dated 1985).

Square brackets hold non-standard residues; d marks the D form. Ends that are not written are not given here. Peptide text beside a SMILES is read from it. Nle = CCCC[C@H](N)C(=O)O

The subject of this experiment is cells of rat pituitary glands. Nature of the experiment: in vitro GH release from cultured rat pituitary cells, compared side by side with synthetic hpGRF(1-40)-OH as standard. The format is cell-based. Conditions: GH release relative to standard hGRF(1-40)-OH = 100%; equimolar concentrations; incubation 3 to 4 hours; immunoreactive GH by radioimmunoassay. The method, then: To determine the relative effectiveness of certain representative synthetic peptides to promote the release of growth hormone, in vitro assays are carried out using synthetic hpGRF(1-40)-OH as a standard in side-by-side comparison with equimolar concentrations of the representative analogs which have been synthesized. Cultures are used which include cells of rat pituitary glands removed some three to five days previously. Such cultures are considered optimal for the secretion of growth hormone and are used for the comparative testing, in the general manner described in Vale et al. Endocrinology, 91, 562-572 (1972) and as more particularly described in Vale et al. Endocrinology, 112, 1553-1555 (1983). Incubation with the substance to be tested is carried out for 3 to 4 hours, and aliquots of the culture medium are removed and processed to measure their contents in immunoreactive GH(ir GH) by a well-characterized radioimmunoassay.
With `CCCC[C@H](NC(=O)[C@@H](NC(=O)[C@H](CCC(=O)O)NC(=O)[C@H](Cc1c[nH]cn1)NC(=O)[C@H](CC(C)C)NC(=O)[C@H](CC(C)C)NC(=O)[C@H](CCCCN)NC(=O)[C@H](CCCNC(=N)N)NC(=O)[C@H](C)NC(=O)[C@H](Cc1ccc(O)cc1)NC(=O)[C@H](CC(C)C)NC(=O)[C@H](CCC(N)=O)NC(=O)CNC(=O)[C@@H](CC(C)C)NC(=O)[C@@H](NC(=O)[C@H](CCCNC(=N)N)NC(=O)[C@H](CCCNC(=N)N)NC(=O)[C@H](Cc1ccc(O)cc1)NC(=O)[C@H](CO)NC(=O)[C@H](CO)NC(=O)[C@@H](NC(=O)[C@H](Cc1ccccc1)NC(=O)[C@@H](NC(=O)[C@H](C)NC(=O)[C@H](CC(=O)O)NC(=O)[C@H](C)NC(=O)[C@@H](N)Cc1c[nH]cn1)[C@@H](C)CC)[C@@H](C)O)[C@@H](C)CC)[C@@H](C)CC)C(=O)N[C@@H](CC(N)=O)C(=O)N[C@@H](CCCNC(=N)N)C(N)=O` [[D-Leu^14, Nle^27]-rGRF(1-29)-NH2] (H-HADAIFTSSYRRI[dL]GQLYARKLLHEI[Nle]NR-NH2), the Comparison % came out at 120%. Turning to `CCCC[C@H](NC(=O)[C@@H](NC(=O)[C@H](CCC(=O)O)NC(=O)[C@H](Cc1c[nH]cn1)NC(=O)[C@H](CC(C)C)NC(=O)[C@H](CC(C)C)NC(=O)[C@H](CCCCN)NC(=O)[C@H](CCCNC(=N)N)NC(=O)[C@H](C)NC(=O)[C@H](Cc1ccc(O)cc1)NC(=O)[C@H](CC(C)C)NC(=O)[C@H](CCC(N)=O)NC(=O)CNC(=O)[C@H](CC(C)C)NC(=O)[C@@H](NC(=O)[C@H](CCCNC(=N)N)NC(=O)[C@H](CCCNC(=N)N)NC(=O)[C@H](Cc1ccc(O)cc1)NC(=O)[C@H](CO)NC(=O)[C@H](CO)NC(=O)[C@@H](NC(=O)[C@H](Cc1ccccc1)NC(=O)[C@@H](NC(=O)[C@H](C)NC(=O)[C@H](CC(=O)O)NC(=O)[C@H](C)NC(=O)[C@@H](N)Cc1c[nH]cn1)[C@@H](C)CC)[C@@H](C)O)[C@@H](C)CC)[C@@H](C)CC)C(=O)N[C@@H](CC(N)=O)C(=O)N[C@H](CCCNC(=N)N)C(N)=O` [[Nle^27, D-Arg^29]-rGRF(1-29)-NH2] (H-HADAIFTSSYRRILGQLYARKLLHEI[Nle]N[dR]-NH2), the Comparison % was 386%. The compound “hGRF(1-40)-OH (YADAIFTNSYRKVLGQLSARKLLQDIMSRQQGESNQERGA-OH; UniProt P01286 32-71, looked up, fragment) [synthetic human pancreatic (tumor) GH releasing factor, residues 1-40, free acid; standard for the tests, reference compound]” had a Comparison % of 100%.
